Measurements as given in patent US5077204A, “Yeast endopeptidase for basic amino-acid site cleavage, preparation and use” (Chiron Corporation, priority 1988, dated 1991).
Peptide text beside a SMILES is read from it. * marks the point of attachment. AMC = Cc1cc(=O)oc2cc(N*)ccc12; βNA = c1ccc2cc(N*)ccc2c1; Cbz = O=C(OCc1ccccc1)*; Boc = CC(C)(C)OC(=O)*

Legend:
Type in all cases: biochemical, S. cerevisiae
[1] = system: background activity in membranes of kex2[YEp24] cells; assay: Endopeptidase activity in membranes from kex2 cells transformed with the vector YEp24 alone (background activity)
Protocol: (§1) Permeabilization of whole yeast cells with the non-ionic detergent Brij 58, preparation of crude membrane fractions, and measurement of protein concentration were conducted by the methods described previously (Julius et al., 1983, supra), incorporated herein by reference. To measure peptidase activity, samples of permeabilized cells or membrane material were added to a reaction mixture containing 0.1-0.5 mM fluorogenic peptide substrate (added from a 20 mM stock dissolved in DMSO) and 200 mM HEPES-Tris (pH 7.0), in a final volume of 0.4 ml. Following incubation for 30 min at 37° C., whole cells were removed by centrifugation in a microfuge (Eppendorf) and membrane material was removed by Ba(OH)2 -ZnSO4 precipitation. The amount of fluorescence formed in the supernatant solution was determined in a fluorescence spectrophotometer (Perkin-Elmer, Model MPF-44B), set either at an excitation wavelength of 335 nm and an emission wavelength of 410 nm (for measurement of β-naphthylamine) or at an excitation wavelength of 380 nm and an emission wavelength of 460 nm (for measurement of 7-amino-4-methyl-coumarin, AMC). To determine the number of moles of substrate hydrolyzed, the fluorescence yield of samples was compared to a standard curve prepared with known concentrations of authentic AMC dissolved in the same buffer.
(§2) Cells of strain XBH1615A that had been transformed with the plasmids
(§3) indicated, or that contained pJ2B in integrated form, were grown in SCUra
(§4) and membranes were prepared as described in the Experimental.
(§5) Endopeptidase activity was assayed as described in the Experimental. All
(§6) substrates tested were present at 0.1 mM.
(§7) Endopeptidase activity was assayed using Boc--GlnArgArg--MCA as the
(§8) substrate, as outlined in the Experimental. All inhibitors were added fro
(§9) a 0.1 M stock dissolved in dimethyl sulfoxide. All values given were
(§10) corrected for the slight effects of addition of this solvent alone.

[2] = biological target: T1, KEX2 endopeptidase (kex2[YEp24-pJ2B] membranes) (Saccharomyces cerevisiae, UniProt P13134); assay: Endopeptidase activity in membranes from kex2 cells carrying multicopy plasmid pJ2B (over-produced specific endopeptidase); conditions: for Relative Ratio: kex2[YEp24-pJ2B] relative to kex2[YEp24] = [1.0]; for Rate of hydrolysis, membranes from kex2 cells carrying pJ2B versus membranes from kex2 cells carrying YEp24: membrane fractions, depending on the experiment
T1 construct: not only includes the KEX2 gene, but also the necessary transcriptional and translational regulatory signals for expression in yeast; expressed in transfected cells; host or cells: S. cerevisiae XBH16-15A (MATalpha kex2-1) carrying YEp24-pJ2B
T1 sequence (P13134 114-814): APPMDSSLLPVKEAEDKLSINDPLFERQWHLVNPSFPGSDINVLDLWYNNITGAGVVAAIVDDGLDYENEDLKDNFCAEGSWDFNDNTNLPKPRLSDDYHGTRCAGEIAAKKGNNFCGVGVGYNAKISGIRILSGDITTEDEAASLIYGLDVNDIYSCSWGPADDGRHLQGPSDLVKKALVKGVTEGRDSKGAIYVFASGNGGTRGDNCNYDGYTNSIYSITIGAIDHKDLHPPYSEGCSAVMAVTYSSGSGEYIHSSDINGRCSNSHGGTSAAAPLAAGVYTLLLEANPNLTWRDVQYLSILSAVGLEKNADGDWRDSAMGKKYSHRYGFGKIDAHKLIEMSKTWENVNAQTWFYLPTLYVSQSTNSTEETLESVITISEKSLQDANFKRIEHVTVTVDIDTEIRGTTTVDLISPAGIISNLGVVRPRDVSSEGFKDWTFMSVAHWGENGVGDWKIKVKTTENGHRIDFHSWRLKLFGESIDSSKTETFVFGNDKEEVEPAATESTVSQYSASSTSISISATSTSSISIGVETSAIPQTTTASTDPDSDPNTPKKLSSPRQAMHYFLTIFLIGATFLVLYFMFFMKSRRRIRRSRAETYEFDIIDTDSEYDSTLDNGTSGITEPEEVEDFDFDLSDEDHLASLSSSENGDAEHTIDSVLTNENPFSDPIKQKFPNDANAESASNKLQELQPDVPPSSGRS
Protocol: as §1, §2, §3, §4, §5, §6, §7, §8
a 0.1 M stock dissolved in dimethyl sulfoxide.

[3] = biological target: T2, KEX2 endopeptidase (kex2::pJ2B membranes) (Saccharomyces cerevisiae, UniProt P13134); assay: Endopeptidase activity in membranes from kex2 cells containing pJ2B in integrated form; conditions: for Relative Ratio: kex2::pJ2B relative to kex2[YEp24] = [1.0]
T2 construct: not only includes the KEX2 gene, but also the necessary transcriptional and translational regulatory signals for expression in yeast; expressed in transfected cells; host or cells: S. cerevisiae XBH16-15A (MATalpha kex2-1) containing pJ2B in integrated form; crude membranes
Protocol: as §1, §2, §3, §4, §5, §6, §7, §8, §9, §10

[4] = biological target: T3, KEX2 endopeptidase (lysate of XBH16-15A carrying YEp24-pJ2B) (Saccharomyces cerevisiae, UniProt P13134); assay: Release of endopeptidase activity from membranes by detergent treatment
T3 construct: not only includes the KEX2 gene, but also the necessary transcriptional and translational regulatory signals for expression in yeast; expressed in transfected cells; host or cells: S. cerevisiae XBH16-15A (MATalpha kex2-1) carrying YEp24-pJ2B
Protocol: as §1
Strain XBH1615A carrying the KEX2 gene on a multicopy plasmid (YEp24pJ2B)
was grown to midexponential phase in SCUra. The cells were collected by
centrifugation and a lysate was prepared as described in the Experimental
The lysate was divided into two equal portions, one of which was treated
with the nonionic detergent Triton X100 at a final concentration of 1%.
Samples of both the original lysate and the detergenttreated lysate were
saved and the remainder of each was separated into a crude membrane
fraction (P100) and a soluble fraction (S100) by centrifugation at 100,00
× g for 1 hr for endopeptidase activity using
Boc--GlnArgArg--MCA as the substrate, as given in the Experimental.

[5] = biological target: T4, KEX2 endopeptidase (Brij 58-permeabilized kex2 cells carrying pJ2B) (Saccharomyces cerevisiae, UniProt P13134); assay: Peptidase activity in detergent-permeabilized kex2 cells carrying pJ2B; conditions: for Rate of hydrolysis, kex2 cells carrying pJ2B versus kex2 cells harboring the vector alone: detergent-permeabilized cells; for Rate of hydrolysis relative to the lysine-containing substrate (Boc-GluLysLys-MCA), times faster: detergent-permeabilized kex2 cells carrying pJ2B
T4 construct: not only includes the KEX2 gene, but also the necessary transcriptional and translational regulatory signals for expression in yeast; expressed in transfected cells; host or cells: S. cerevisiae XBH16-15A (MATalpha kex2-1) carrying YEp24-pJ2B
Protocol: as §1

[6] = kex2[YEp24], Triton X-100 1% + 5 mM TPCK, substrate Boc-GlnArgArg-MCA
[7] = kex2[YEp24], Triton X-100 1%, substrate Boc-GlnArgArg-MCA
[8] = kex2[YEp24-pJ2B], Triton X-100 1% + 5 mM TPCK, substrate Boc-GlnArgArg-MCA
[9] = kex2[YEp24-pJ2B], Triton X-100 1%, substrate Boc-GlnArgArg-MCA
[10] = kex2::pJ2B, Triton X-100 1% + 5 mM TPCK, substrate Boc-GlnArgArg-MCA
[11] = kex2::pJ2B, Triton X-100 1%, substrate Boc-GlnArgArg-MCA
[12] = +1% Triton X-100, P100 crude membrane fraction
[13] = +1% Triton X-100, S100 soluble fraction
[14] = strain kex2[YEp24], substrate 0.1 mM, membranes
[15] = strain kex2[YEp24-pJ2B], substrate 0.1 mM, membranes
[16] = strain kex2::pJ2B, substrate 0.1 mM, membranes

Triton X-100 was tested, and the Inhibition [1, 6] was 76%, the “Specific Activity” value [1, 6] was 1.2 pmoles/μg/10 min and the Inhibition [1, 7] was 71%. For the same molecule, the “Specific Activity” value [1, 7] was 1.5 pmoles/μg/10 min, the “Susceptibility of the background activity to inhibition” value ([1]; kex2 cells transformed with YEp24 alone) was “greatly reduced” and the “Relative Ratio” value ([2]; Triton X-100 1% + 5 mM TPCK) was 127.4. For the same molecule, the Inhibition [2, 8] was 0%, the “Specific Activity” value [2, 8] was 152.9 pmoles/μg/10 min and the Inhibition [2, 9] was 0%. The “Specific Activity” value [2, 9] was 155.0 pmoles/μg/10 min, the “Susceptibility of the specific KEX2 endopeptidase to inhibition or inactivation” value ([2]; kex2 cells transformed with plasmid pJ2B, comparisons are to the background activity) was “slightly activated” and the “Relative Ratio” value ([3]; Triton X-100 1% + 5 mM TPCK) was 9.4. For the same molecule, the Inhibition [3, 10] was 34%, the “Specific Activity” value [3, 10] was 11.4 pmoles/μg/10 min and the Inhibition [3, 11] was 26%. The “Specific Activity” value [3, 11] was 12.9 pmoles/μg/10 min, the “% of Recovery” value ([4]; +1% Triton X-100, P100 + S100) was 94% and the “% of Total” value [4, 12] was 19%. For the same molecule, the “Specific Activity” value [4, 12] was 50.0 pmoles/μg/10 min, the “% of Total” value [4, 13] was 75% and the “Specific Activity” value [4, 13] was 200.0 pmoles/μg/10 min. For the same molecule, the “Specific Activity” value ([4]; +1% Triton X-100, whole lysate, substrate Boc-GlnArgArg-MCA) was 265.0 pmoles/μg/10 min and the “Solubilization of the specific KEX2 endopeptidase from membranes” value ([4]; Triton X-100 at final concentration of 1%) was “readily solubilized from membranes”.
With `Cc1cc(=O)oc2cc(NC(=O)[C@H](CCCNC(=N)N)NC(=O)[C@H](CCCNC(=N)N)NC(=O)[C@H](CCC(N)=O)NC(=O)OC(C)(C)C)ccc12` [Boc--GlnArgArg--MCA, Boc-GlnArgArg-7-amino-4-methyl-coumarin] (Boc-Gln-Arg-Arg-{AMC}) the “Specific Activity” value [1, 14] was 5.0 pmoles AMC formed/μg protein 10, the “Relative Ratio” value ([2]; substrate 0.1 mM) was 20.2 and the “Rate of hydrolysis, membranes from kex2 cells carrying pJ2B versus membranes from kex2 cells carrying YEp24” value [2] was 20- to 35 fold. The “Specific Activity” value [2, 15] was 100.8 pmoles AMC formed/μg protein 10, the “Relative Ratio” value ([3]; substrate 0.1 mM) was 3.3 and the “Specific Activity” value [3, 16] was 16.7 pmoles AMC formed/μg protein 10. For the same molecule, the “Rate of hydrolysis, kex2 cells carrying pJ2B versus kex2 cells harboring the vector alone” value [5] was “six- to ninefold greater” and the “Rate of hydrolysis relative to the lysine-containing substrate (Boc-GluLysLys-MCA), times faster” value [5] was about 30 times.
With `C[C@H](NC(=O)OCc1ccccc1)C(=O)N[C@@H](CCCNC(=N)N)C(=O)N[C@@H](CCCNC(=N)N)C(=O)Nc1ccc2ccccc2c1` [CBZ-AlaArgArg-β-naphthylamide] (Cbz-Ala-Arg-Arg-βNA) the “Rate of hydrolysis, kex2 cells carrying pJ2B versus kex2 cells harboring the vector alone” value [5] was “six- to ninefold greater” and the “Rate of hydrolysis relative to the lysine-containing substrate (Boc-GluLysLys-MCA), times faster” value [5] was about 30 times.
`Cc1cc(=O)oc2cc(NC(=O)[C@H](CCCCN)NC(=O)[C@H](CCCCN)NC(=O)[C@H](CCC(=O)O)NC(=O)OC(C)(C)C)ccc12` [Boc--GluLysLys--MCA, Boc-GluLysLys-MCA] (Boc-Glu-Lys-Lys-{AMC}) was tested, and the “Specific Activity” value [1, 14] was 0.3 pmoles AMC formed/μg protein 10, the “Relative Ratio” value ([2]; substrate 0.1 mM) was 6.3 and the “Rate of hydrolysis relative to Boc-GlnArgArg-MCA, times more slowly” value ([2]; membrane fractions of kex2 cells carrying pJ2B) was “about 50 times”. The “Rate of hydrolysis, membranes from kex2 cells carrying pJ2B versus membranes from kex2 cells carrying YEp24” value [2] was “about six-fold”, the “Specific Activity” value [2, 15] was 1.9 pmoles AMC formed/μg protein 10 and the “Relative Ratio” value ([3]; substrate 0.1 mM) was 1.7. The “Specific Activity” value [3, 16] was 0.5 pmoles AMC formed/μg protein 10 and the “Rate of hydrolysis, kex2 cells carrying pJ2B versus kex2 cells harboring the vector alone” value [5] was “six- to ninefold greater”.
